What was measured:
[1] = target: T1, human 5-HT1AR (Homo sapiens, UniProt P08908); test: Radioligand binding assay at human 5-HT1AR ([3H]8-OH-DPAT, HeLa cells); details: HeLa cells expressing h5-HT1AR, read-out: Ki ± SEM, 5-HT1AR
T1 construct: expressed in transfected cells; host or cells: HeLa
T1 sequence (P08908 1-422): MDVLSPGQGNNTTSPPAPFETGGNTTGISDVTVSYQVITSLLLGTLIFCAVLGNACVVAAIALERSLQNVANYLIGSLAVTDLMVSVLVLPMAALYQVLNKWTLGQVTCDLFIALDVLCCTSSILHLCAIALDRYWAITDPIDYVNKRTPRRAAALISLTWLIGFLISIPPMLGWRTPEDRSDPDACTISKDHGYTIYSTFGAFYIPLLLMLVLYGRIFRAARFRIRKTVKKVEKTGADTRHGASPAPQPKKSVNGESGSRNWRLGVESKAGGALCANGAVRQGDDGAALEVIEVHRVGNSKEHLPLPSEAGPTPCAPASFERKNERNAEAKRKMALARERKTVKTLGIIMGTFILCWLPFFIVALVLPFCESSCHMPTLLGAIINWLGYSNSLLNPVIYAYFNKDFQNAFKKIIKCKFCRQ
Protocol: A human cell line (HeLa) stably transfected with genomic clone G-21 coding for the human 5-HT1AR was used. Cells were grown as monolayers in Dulbecco’s modified Eagle’s medium supplemented with 10% fetal calf serum and gentamycin (100 μg/mL) under 5% CO2 at 37 °C. Cells were detached from the growth flask at 95% confluency by a cell scraper and were lysed in ice-cold Tris (5 mM) and EDTA buffer (5 mM, pH 7.4). Homogenates were centrifuged for 20 min at 40000g, and pellets were resuspended in a small volume of ice-cold Tris/EDTA buffer (above) and immediately frozen and stored at -70 °C until use. On the day of experiment, cell membranes (80–90 μg of protein) were resuspended in binding buffer (50 mM Tris, 2.5 mM MgCl2, and 10 mM pargyline, pH 7.4). Membranes were incubated in a final volume of 0.32 mL for 30 min at 30 °C with 1 nM [^3H]8-OH-DPAT in the absence or presence of various concentrations of competing drugs (1 pM to 1 μM); each experimental condition was performed in triplicate. Nonspecific binding was determined in the presence of 10 μM 5-HT.

[2] = target: D2R (Homo sapiens, UniProt P14416); test: D2 mitogenesis functional assay (CHOp-D2 cells); format: cell-based; set-up: expressed in transfected cells; host or cells: CHOp-D2 cells; details: for IC50 / % inhib., D2 mitogenesis assay: antagonist mode; for IC50: inhibition of quinpirole stimulation of mitogenesis; for % inhib., D2 mitogenesis assay: standard antagonist (+)-butaclamol; for functional behavior at D2R: in words
Protocol: (§1) CHOp-D2 and CHOp-D3 cells are maintained in α-MEM with 10% fetal bovine serum (FBS, Atlas Biologicals), 0.05% pen-strep, and 400 μg/mL of G418. […] The cells are incubated at 37 °C in α-MEM with 10% FBS. After 48–72 h, the cells are rinsed twice with serum-free α-MEM and incubated for 24 h at 37 °C. Serial dilutions of test compounds are made by the Biomek robotics system in serum-free α-MEM. In the functional assay for agonists, the medium is removed and replaced with 100 μL of test compound in serum-free α-MEM. In the antagonist assay, the serial dilution of the putative antagonist test compound is added in 90 μL (1.1× of final concentration) and 300 nM quinpirole (30 nM final) is added in 10 μL. After another 24 h (D2) or 16 h (D3) incubation at 37 °C, 0.25 μCi of [^3H]thymidine in αMEM supplemented with 10% FBS is added to each well, and the plates are further incubated for 2 h at 37 °C. The cells are trypsinized by addition of 10× trypsin solution (1% trypsin in calcium–magnesium-free phosphate-buffered saline), and the plates are filtered and counted as usual. Quinpirole is run each day as an internal control, and dopamine is included for comparative purposes.

[3] = target: D3R (Homo sapiens, UniProt P35462); test: D3 mitogenesis functional assay (CHOp-D3 cells); format: cell-based; set-up: expressed in transfected cells; host or cells: CHOp-D3 cells; details: for EC50 / % stimul., D3 mitogenesis assay: agonist mode; for % stimul., D3 mitogenesis assay: standard agonist quinpirole; for IC50 / % inhibition (efficacy), D3R when tested as an antagonist: antagonist mode; for IC50: inhibition of quinpirole stimulation of mitogenesis, read-out: IC50, D3R when tested as an antagonist; for % inhibition (efficacy), D3R when tested as an antagonist: standard antagonist NGB 2904; for functional behavior at D3R: in words
Protocol: as §1

[4] = target: T2, 5-HT2CR (Homo sapiens, UniProt P28335); test: Radioligand binding assay at human 5-HT2CR ([125I]DOI, HEK cells); set-up: expressed in transfected cells; host or cells: HEK (HEK-h5HT2C); details: HEK cells expressing h5-HT2CR, read-out: Ki ± SEM, 5-HT2CR
T2 sequence (P28335 33-458): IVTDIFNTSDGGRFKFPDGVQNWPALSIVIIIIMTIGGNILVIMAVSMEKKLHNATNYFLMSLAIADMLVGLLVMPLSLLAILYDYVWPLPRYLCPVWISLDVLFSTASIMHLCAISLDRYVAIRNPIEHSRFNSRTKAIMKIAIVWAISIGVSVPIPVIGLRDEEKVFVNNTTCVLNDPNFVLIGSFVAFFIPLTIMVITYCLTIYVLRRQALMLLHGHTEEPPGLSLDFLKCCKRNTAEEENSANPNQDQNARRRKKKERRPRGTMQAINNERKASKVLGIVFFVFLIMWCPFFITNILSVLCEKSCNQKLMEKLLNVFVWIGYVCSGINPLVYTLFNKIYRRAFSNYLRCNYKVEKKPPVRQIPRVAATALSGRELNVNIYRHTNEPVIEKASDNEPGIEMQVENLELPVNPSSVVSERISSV
Protocol: Human embryonic kidney cells expressing human 5HT2AR (HEK-h5HT2A) or human 5HT2CR (HEK-h5HT2C) are used. The cells are grown until confluent on 15 cm plates. The medium is removed, and the cells are washed with phosphate-buffered saline (PBS), scraped into 2 mL PBS, and frozen at −20 °C until needed. Cell suspension is thawed, 10 mL assay buffer (50 mM Tris, pH 7.4 at 37 °C, with 0.1% ascorbic acid and 5 mM CaCl2) is added per plate of cells, and polytronned at setting 6 for 5 s. The homogenate is centrifuged at 15,500 rpm for 20 min. To minimize the residual 5HT concentration, the pellet is resuspended in buffer, polytronned, and centrifuged as mentioned above. The final pellet is resuspended in 2 mL buffer/plate of cells. The binding assay includes 50 μL drug, 5-HT or buffer, 50 μL cell homogenate, 50 μL [^125I]DOI (∼0.1 nM), and buffer in a final volume of 250 μL. Specific binding is defined as the difference between total binding and binding in the presence of 10 μM 5HT. The reaction is incubated for 1 h at 37 °C and terminated by filtration through Wallac A filter mats presoaked in 0.05% polyethylenimine using a Tomtec 96-well harvester. The radioactivity remaining on filters is determined using a Wallac betaplate reader.

Sequence of D2R (P14416 whole entry): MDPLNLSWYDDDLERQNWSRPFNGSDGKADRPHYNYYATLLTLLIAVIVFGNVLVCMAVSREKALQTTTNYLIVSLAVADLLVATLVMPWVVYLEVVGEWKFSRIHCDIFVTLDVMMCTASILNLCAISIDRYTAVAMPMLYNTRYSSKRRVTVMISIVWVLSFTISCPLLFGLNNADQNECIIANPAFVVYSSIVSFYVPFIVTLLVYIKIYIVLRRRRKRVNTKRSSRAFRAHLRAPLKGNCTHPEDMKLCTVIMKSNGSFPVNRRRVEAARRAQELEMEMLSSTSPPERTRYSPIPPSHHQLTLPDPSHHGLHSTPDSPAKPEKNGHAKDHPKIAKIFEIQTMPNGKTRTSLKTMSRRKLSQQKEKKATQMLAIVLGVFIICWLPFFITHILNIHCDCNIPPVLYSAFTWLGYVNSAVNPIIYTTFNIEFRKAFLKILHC
Sequence of D3R (P35462 whole entry): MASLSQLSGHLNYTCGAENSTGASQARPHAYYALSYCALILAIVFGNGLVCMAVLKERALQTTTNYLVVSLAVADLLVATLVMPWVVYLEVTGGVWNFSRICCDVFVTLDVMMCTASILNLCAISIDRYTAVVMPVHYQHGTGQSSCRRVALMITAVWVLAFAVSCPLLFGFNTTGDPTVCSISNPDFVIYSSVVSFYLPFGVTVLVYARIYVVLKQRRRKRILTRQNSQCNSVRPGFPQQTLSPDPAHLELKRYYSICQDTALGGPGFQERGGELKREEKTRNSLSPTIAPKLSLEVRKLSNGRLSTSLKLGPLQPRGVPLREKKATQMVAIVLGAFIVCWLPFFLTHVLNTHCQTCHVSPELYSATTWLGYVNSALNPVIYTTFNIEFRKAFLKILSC

Structure (SMILES) | Ki [1] | IC50 [2] | % inhib., D2 mitogenesis assay [2] | functional behavior at D2R [2] | EC50 [3] | % stimul., D3 mitogenesis assay [3] | IC50 [3] | % inhibition (efficacy), D3R when tested as an antagonist [3] | functional behavior at D3R [3] | Ki [4]
O=C(NCCCCN1CCN(c2cccc(Cl)c2Cl)CC1)C1COC(c2ccccc2)(c2ccccc2)CO1 (stereo not drawn) [compound 6, N-(4-(4-(2,3-Dichlorophenyl)piperazin-1-yl)butyl)-5,5-diphenyl-1,4-dioxane-2-carboxamide] | 0.0091 ± 0.00097 µM | 0.0085 µM | (95.2) % | efficacious D2R and 5-HT2AR antagonists with high and low potency, respectively | 0.00272 µM | 25.7% | 0.0066 µM | 64.0% | D3R and 5-HT2CR partial agonists with high and low potency, respectively | 0.09 ± 0.016 µM
O=C(NCCCCN1CCN(c2cccc(Cl)c2Cl)CC1)C1COCC(c2ccccc2)(c2ccccc2)O1 (stereo not drawn) [compound 3, N-(4-(4-(2,3-Dichlorophenyl)piperazin-1-yl)butyl)-6,6-diphenyl-1,4-dioxane-2-carboxamide] | 0.288 ± 0.015 µM | 0.139 µM | (93.5) % | weak D2R antagonist | 0.0098 ± 0.0016 µM | 36% | 0.038 µM | 82.7% | partial agonist | 0.642 ± 0.08 µM
O=C(NCCCCN1CCN(c2cccc(Cl)c2Cl)CC1)C1COc2ccccc2O1 (stereo not drawn) [compound 9, N-(4-(4-(2,3-Dichlorophenyl)piperazin-1-yl)butyl)-2,3-dihydrobenzo[b][1,4]dioxine-2-carboxamide] | 0.0238 ± 0.0052 µM | 0.04 µM | (94.4) % | efficacious D2R and 5-HT2AR antagonists with high and low potency, respectively | 0.005 ± 0.0017 µM | 34.0% | 0.0404 µM | 64.2% | D3R and 5-HT2CR partial agonists with high and low potency, respectively | 0.097 ± 0.025 µM

Source: PMC8498988, “Scaffold Hybridization Strategy Leads to the Discovery of Dopamine D3 Receptor-Selective or Multitarget Bitopic Ligands Potentially Useful for Central Nervous System Disorders” (ACS Chemical Neuroscience, 2021)
